The values below come from paper PMC6849653, “Volasertib preclinical activity in high-risk hepatoblastoma” (Oncotarget, 2019).

Data set [1] relates to hepatoblastoma cell lines HepG2, Huh-6 and HB-214 versus hepatocytes.
Description: (§2) On day 0, cells were trypsinized and plated into a white walled 384-well plate containing pre-diluted known concentrations of various drugs. After 72 hours, an equal volume of Cell-Titer Glo 2.0 (G9243, Promega) was added to each well, incubated at room temperature while rocking in the dark for 15 minutes, followed by luminescence acquisition with a BioTek Synergy HT plate reader (BioTek, Winooski, VT).
The subject of the next data set is HB-295. As to the kind of experiment: Cell proliferation study, HB-295. It is filed as cell-based, human. Conditions: 72 h drug exposure, Cell-Titer Glo, average of quadruplicates, read-out: absolute IC50, HB-295. The method, then: (§1) On day 0, cells were trypsinized and plated into white walled 384-well plates. On day 1, when cells were 70% confluent, volasertib (S2235, SelleckChem, Houston, TX), SN38 (S4908, SelleckChem) or vincristine (S1241, SelleckChem) suspended in DMSO were added to plates using a Tecan D300e drug printer (Tecan Life Sciences, Switzerland), ensuring less than 1% DMSO. […] Absolute IC50 values were calculated using GraphPad Prism (GraphPad, San Diego, CA). Synergy values were calculated using CalcuSyn (Biosoft, Cambridge, UK) software.

For another data set, the system named is HB-282. As to the kind of experiment: Cell proliferation study, HB-282. The format is cell-based, human. Conditions: 72 h drug exposure, Cell-Titer Glo, average of quadruplicates, read-out: absolute IC50, HB-282. The method, then:
as §1

Data set [2] deals with HB-279. In words: Cell proliferation study, HB-279. The format is cell-based, human. Conditions: 72 h drug exposure, Cell-Titer Glo, average of quadruplicates, read-out: absolute IC50, HB-279. The method, then:
as §1

The test system of data set [3] is HB-279. In words: Cell cycle analysis by flow cytometry (PI staining), HB-279. It is filed as cell-based, human. Conditions: for Percent of cells in S phase / Percent of cells in G2/M / Percent of cells in G1: HB-279, 72 hour treatment, 150 nM volasertib, 3 nM SN38, N=3; for Percent of cells in S phase: DMSO 16.1; for Percent of cells in G2/M: DMSO 26.8; for Percent of cells in G1: DMSO 56.5; for cell cycle arrest as compared to vehicle control: clinically achievable concentrations, 72 hours. How it is done: After a 72-hour drug treatment, cells were collected and fixed in ice cold 70% ethanol. After rehydration, cells were stained using the Guava Cell Cycle Reagent for Flow Cytometer (4500-0220, MilliporeSigma, Germany) according to the product protocol. Cells were analyzed for propidium iodide using the Guava EasyCyte 8HT (MilliporeSigma). Flow data was analyzed using CytoBank software (Cytobank, Santa Clara, CA).
Background: A flow cytometer gives signals particle by particle.

A further data set has as its system HB-284. As to the kind of experiment: Cell proliferation study, HB-284. The format is cell-based, human. Conditions: 72 h drug exposure, Cell-Titer Glo, average of quadruplicates, read-out: absolute IC50, HB-284. The method, then: as §1
The conditions of data set [4]: cited from earlier work.
The next data set concerns HB-243. As to the kind of experiment: Cell proliferation study, HB-243. The format is cell-based, human. The conditions noted are these: 72 h drug exposure, Cell-Titer Glo, average of quadruplicates, read-out: absolute IC50, HB-243. How it is done: as §1
For data set [5] the following is noted: cited from earlier work. The source holds these as a separate data set.
Data set [6] concerns HB-214. As to the kind of experiment: 60-agent chemical screen, cell viability (Cell-Titer Glo), HB-214.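 Further: viability read as luminescence once Cell-Titer Glo 2.0 reagent was added to drug-treated cells in 384-well plates.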 It is filed as cell-based. Conditions: Homo sapiens; 60-agent screen, 72 hours; a value of 10,000 indicates that the drug did not inhibit viability; read-out: absolute IC50, HB-214.
Description: as §2
For another data set, the system named is normal human hepatocytes. As to the kind of experiment: 60-agent chemical screen, cell viability (Cell-Titer Glo), hepatocytes.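 Further: cells were plated onto pre-diluted drug concentrations in 384-well plates, and viability was read after 72 h as CellTiter-Glo 2.0 luminescence.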 The conditions noted are these: Hepatocyte. It is filed as cell-based.
A further data set relates to Huh-6. In words: 60-agent chemical screen, cell viability (Cell-Titer Glo), Huh-6. Conditions: Homo sapiens, 60-agent screen, 72 hours, a value of 10,000 indicates that the drug did not inhibit viability, read-out: absolute IC50, Huh-6. It is filed as cell-based.
The test system of a further data set is HepG2. In words: 60-agent chemical screen, cell viability (Cell-Titer Glo), HepG2.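 Further: luminescence read-out in 384-well plates, with cells plated directly onto drug dilutions of known concentration.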 It is filed as cell-based. Conditions: Homo sapiens, 60-agent screen, 72 hours, a value of 10,000 indicates that the drug did not inhibit viability, read-out: absolute IC50, HepG2.
Data set [7] relates to hepatoblastoma cell lines HepG2, Huh-6 and HB-214 versus hepatocytes. In words: 60-agent chemical screen, hepatoblastoma cell lines taken together / versus hepatocytes.
Description: as §2
Data set [8] relates to six hepatoblastoma cell cultures. As to the kind of experiment: Cell proliferation study, six hepatoblastoma cell cultures together. It is filed as cell-based, human. How it is done:
as §1

In the next data set the test system is SMMC7721. On the set-up: method as in PMID 27904765. Conditions: hepatocellular carcinoma cell line; cited from earlier work.
Another data set concerns PLK1. Further details: method as in PMID 19383823. Conditions: read-out: cell-free enzyme IC50, PLK1; cited from earlier work.
Data set [9] has as its system HB-214. As to the kind of experiment: Cell proliferation study, HB-214. It is filed as cell-based. The conditions noted are these: Homo sapiens; 72 h drug exposure, Cell-Titer Glo, average of quadruplicates; read-out: absolute IC50, HB-214. How it is done:
as §1

Another data set relates to HB-214 PDX. In words: HB-214 hepatoblastoma PDX in athymic nude mice. It is filed as in vivo. Conditions: volasertib 30 mg/kg IV 2qwk, irinotecan 10 mg/kg IP q5d, alone or combined; 6 mice per group.
In another data set the test system is SK-Hep1. On the set-up: method as in PMID 27904765. The conditions noted are these: hepatocellular carcinoma cell line; cited from earlier work.
The test system of another data set is PLK2. Further details: method as in PMID 19383823. Conditions: read-out: cell-free enzyme IC50, PLK2; cited from earlier work.
A further data set deals with PLK3. Further details: method as in PMID 19383823. The conditions noted are these: read-out: cell-free enzyme IC50, PLK3; cited from earlier work.
[10] abbreviates: 60-agent screen, 72 hours, a value of 10,000 indicates that the drug did not inhibit viability, read-out: absolute IC50, Hepatocytes.

pIC50: −log10 of the molar value. “Also recorded” adds a separate entry of the source. Where two headings read alike, the source gives them in different places.

Description for HB-214 PDX: These fragments were engrafted in the interscapular region of 6-8 week-old female athymic nude mice (Athymic NudeFoxn1^nu, ENVIGO, Gannat, France). After latency period, mice with a subcutaneously growing tumor between 62 and 256 mm^3 were allocated to each treatment arm according to their tumor volume to obtain homogenous mean and median tumor volume in each arm. Treatments were randomly attributed to boxes housing up to five mice. […] Tumor volume (TV) was evaluated by caliper measurement, 2 or 3 times a week during latency and treatment period. The formula Total Volume (TV) (mm^3) = [length (mm) x width (mm)^2]/2 was used, where the length and the width are the longest and the shortest diameters of the tumor. The tumor growth delay index (TGDI) was calculated as the median growth delay in the treated group divided by the median growth delay in the control group, and represented the x-fold time to reach 5-fold the TV at D0.The ratio between the mean TV of a treated group (T) and the mean TV of the control group (C) was calculated at each measurement, and represented the antitumoral activity of the tested compound(s). The tumor growth rate, evaluated by the formula [DT/T0]-1 where DT is the delta of tumor size between the considered day and the day of enrolment and T0 is mean TV at D0, gives the percentage of growth compared with the initial day. […]
Description for normal human hepatocytes: as §2

`Cc1ccc(S(=O)(=O)/C=C/C#N)cc1` [BAY-11-7082]: the “Ratio normal/cancer: average ratio of the IC50 in hepatocytes to the IC50 in hepatoblastoma cell lines” value (shortened to “Ratio normal/cancer: average ratio”) in [1] stood at 1.

For the compound `Clc1ccc(N/N=C(\c2ccccc2)c2ccccn2)nc1` [JIB-04], the “Ratio normal/cancer: average ratio” value in data set [1] is listed as 4.

For `CS(=O)(=O)c1cccc(CNc2nc(Nc3ccc4c(c3)CCC(=O)N4)ncc2C(F)(F)F)c1` [PF 573228], the “Ratio normal/cancer: average ratio” value in data set [1] stood at 1.

Turning to `CCc1c2c(nc3ccc(O)cc13)-c1cc3c(c(=O)n1C2)COC(=O)[C@]3(O)CC` [SN38], the negative-log IC50 (pIC50) is 6.30 with HB-295; 7.59 in the data set with HB-282; 6.70 with HB-279 [2]; 6.68 with HB-284; 6.80 with HB-243. For the same compound, in the data set with HB-279 [3], the “Percent of cells in S phase” value was 17.7%. Further, the “Percent of cells in G2/M” value in the data set on HB-279 [3] is on record as 34.3%. Also, in the data set with HB-279 [3], the “Percent of cells in G1” value was determined as 47.6%. For the same compound, in the data set with HB-279 [3], the “cell cycle arrest as compared to vehicle control” value is “modest G2/M phase arrest”. The “AUC0-∞” value in [4] (SN38, pediatric study) was 0.214 µM·h. Besides, the Cmax in data set [4] (SN38 from clinical trials) is 120 nM.

Take `CCc1c2c(nc3ccc(OC(=O)N4CCC(N5CCCCC5)CC4)cc13)-c1cc3c(c(=O)n1C2)COC(=O)[C@]3(O)CC` [irinotecan]: the side effects entry in data set [5] (irinotecan) is “diarrhea and neutropenia”.

For the compound `C/C=C(/C)C(=O)O[C@H]1C(C)=C2[C@H]([C@@H]1OC(=O)CCCCCCC)[C@@](C)(OC(C)=O)C[C@H](OC(=O)CCC)[C@@]1(O)[C@H]2OC(=O)[C@@]1(C)O` [thapsigargin], the negative logarithm of the IC50 (pIC50) in the data set on HB-214 [6] is 6.80; in the data set on normal human hepatocytes (setting [10]), 6.28; with Huh-6, 6.55; in the data set on HepG2, 7.68. The known toxicity result in data set [5] (in vivo) is “significant renal toxicity”.

Regarding `Cc1cc(Nc2cc(N3CCN(C)CC3)nc(Sc3ccc(NC(=O)C4CC4)cc3)n2)[nH]n1` [tozasertib], the negative logarithm of the IC50 (pIC50) with HB-214 [6] was 5.83; in the data set on normal human hepatocytes (setting [10]), less than 5.00; in the data set on Huh-6, 5.49; with HepG2 it was less than 5.00.

Take `CC(=O)Nc1cccc(-n2c(=O)n(C3CC3)c(=O)c3c(Nc4ccc(I)cc4F)n(C)c(=O)c(C)c32)c1` [trametinib]: the pIC50 in the data set with HB-214 [6] was 6.68; in the data set on normal human hepatocytes (setting [10]) it was less than 5.00; in the data set with Huh-6, less than 5.00; in the data set on HepG2 it was less than 5.00. In addition, in [7] (60-agent screen), the “effectiveness across the three hepatoblastoma cell lines” value was “only effective in one cell line out of three”.

Take `CN1CCc2c(c3ccccc3n2Cc2ccc(C(=O)NO)cc2)C1` [tubastatin A]: the negative-log IC50 (pIC50) in the data set with HB-214 [6], in the data set with normal human hepatocytes (setting [10]), with Huh-6 and in the data set on HepG2 was less than 5.00 each time.

For the compound `CC[C@]1(O)C[C@H]2CN(CCc3c([nH]c4ccccc34)[C@@](C(=O)OC)(c3cc4c(cc3OC)N(C=O)[C@H]3[C@@](O)(C(=O)OC)[C@H](OC(C)=O)[C@]5(CC)C=CCN6CC[C@]43[C@@H]65)C2)C1` [vincristine], in [8] (72hr drug exposure, Supplementary Figure 4), the “sensitivity of hepatoblastoma cell lines to vincristine” value was “Several cell lines were highly resistant”. The Cmax in data set [4] (published Cmax of vincristine) was 90 nM.

As for `CC[C@@H]1C(=O)N(C)c2cnc(Nc3ccc(C(=O)N[C@H]4CC[C@H](N5CCN(CC6CC6)CC5)CC4)cc3OC)nc2N1C(C)C` [volasertib], the pIC50 was 5.40 in the data set on SMMC7721; more than 5.00 in data set [8] (Homo sapiens, range over HB-214, HB-243, HB-279, HB-282, HB-284, HB-295, read-out: IC50 across all six hepatoblastoma cell cultures); 6.44 in the data set on HB-214 [6]; 5.93 with HB-295 (Homo sapiens); 5.67 in the data set with HB-282 (Homo sapiens); 9.06 in the data set on PLK1. Moreover, the pIC50 in the data set with HB-279 [2] (Homo sapiens) is 5.69; with HB-284 (Homo sapiens), 5.48; in data set [7] (Homo sapiens, Hepatocyte, read-out: IC50, cancer cells) it was 6.28 to 6.44; with HB-214 [9], 6.14; with normal human hepatocytes (as restated in the discussion, read-out: IC50, normal hepatocytes), less than 5.00; in the data set on Huh-6, 5.42. Also, the negative-log IC50 (pIC50) in the data set with SK-Hep1 is 5.15; with PLK2, 8.30; with PLK3, 7.25; in the data set on HB-243 (Homo sapiens), 6.60; in the data set on HepG2, 6.28. Also, in the data set on HB-279 [3], the “Percent of cells in S phase” value amounted to 14.2%. Also, the “Percent of cells in G2/M” value in the data set with HB-279 [3] amounted to 40.7%. The “Percent of cells in G1” value with HB-279 [3] amounted to 44.7%. For the same compound, the “cell cycle arrest as compared to vehicle control” value in the data set on HB-279 [3] was “cell cycle arrest in G2/M”. In the data set on HB-214 PDX, the “tumor growth (mean tumor volume over time)” value is “appreciable and cytostatic; also recorded: slowed”. Further, the Cmax in [4] (measured in clinical trials) was 1220 nM. For the same compound, in [5] (volasertib), the side effects result was “neutropenia and anemia”.

With `O=c1ncccn1[C@@H]1O[C@H](CO)[C@@H](O)[C@H]1O` [zebularine], the pIC50 in the data set on HB-214 [6], in the data set with normal human hepatocytes (setting [10]), in the data set on Huh-6 and with HepG2 was less than 5.00 throughout.

What is called pIC50 is the negative decadic logarithm of the IC50, by convention in mol/L. The term Cmax denotes the maximum level reached in the sampled fluid or tissue.
